According to patent publication EP0974351A2, “Medicament for preventing and treating gastrointestinal damage” (JOUVEINAL, priority 1998, dated 2000):

Tests used:
Format in all cases: in vivo, Male Sprague-Dawley rats
[1] = tested on: gastric lesions caused by indomethacin; assay: Indomethacin-induced gastric lesions in rats (gabapentin pretreatment); conditions: for gastric lesion (square area of visible lesions): indomethacin alone 42.6 ± 5.2
Method: Gabapentin was evaluated in animals to determine its ability to prevent gastric lesions otherwise caused by indomethacin.
Male Sprague-Dawley rats weighing 240 to 250 g were fasted for 24 hours and allowed free access to water prior to experiment. All test drugs were given intragastrically. Rats were pretreated with different doses of gabapentin at doses of 40 and 60 mg. Thirty minutes later indomethacin (25 mg/kg) was administered. Another group of rats received 10 mg of gabapentin twice, 3 hours apart, followed by indomethacin administration. Three hours after indomethacin treatment, the rats were killed and gastric lesions were assessed. The severity of the lesions were determined by the measurement of the square area (mm^2) of visible lesions.

[2] = tested on: Colonic Threshold in Normal Rats; assay: Colonic distension pain threshold in normal rats; conditions: normal rats, control 43.33, NS vs control
Method: (§1) Male Sprague-Dawley rats weighing 340 to 400 g were used in the study. The animals were housed three per cage in a regulated environment (20 ± 1°C, 50 ± 5% humidity, with light 8:00 AM to 8:00 PM). Under anethesia (ketamine 80 mg/kg i.p.; acepromazin 12 mg/kg i.p.), TNBS (50 mg/kg), or saline (1.5 mL/kg) was injected into the proximal colon (1 cm from the cecum). After the surgery, animals were individually housed in the regulated environment.
(§2) A balloon catheter (5-6 cm length) was inserted through the anus into the colon and kept in position (tip of balloon 5 cm from the anus) by taping the catheter to the base of the tail. The balloon was progressively inflated by step of 5 mm Hg, from 0 to 75 mm Hg, each step of inflation lasting 30 seconds. Each cycle of colonic distension was controlled by a standard barostat. The threshold corresponds to the pressure which produced the first abdominal contraction, at which time the cycle of distension was discontinued. To determine the colonic threshold, four cycles of distension were performed on the same animal.
In a first series of experiments, a group of eight rats treated with saline were subjected to a colonic distension session.
(§3) All test compounds were dissolved in saline except TNBS. TNBS was dissolved in EtOH 30% (w/v). Subcutaneous injection of vehicle was given in a volume of […].
(§4) Statistical significance between each group was determined using a one-way ANOVA followed by Student's unpaired t-test. Differences were considered statistically significant at p <0.05.

[3] = tested on: TNBS-Induced Chronic Colonic Allodynia; assay: TNBS-induced chronic colonic allodynia in rats (colonic distension threshold); conditions: for Colonic Threshold: TNBS-treated rats, control 43.39, TNBS alone printed 1781; for dose relation of the inhibition of TNBS-induced colonic allodynia: gabapentin 100, 300, 500 mg/kg sc, CI-1008 30, 60, 100, 200 mg/kg sc; for colonic inflammatory effect of TNBS (colon weight, area of hyperemia and necrosis, colonic myeloperoxidase content): sc 30 minutes before measurement, Day 7 after TNBS
Method: GABA analogs were evaluated in rats suffering from chronic visceral allodynia induced by trinitrobenzene sulfonic acid (TNBS).
In humans, digestive disorders are often associated with visceral pain. In these pathologies, the visceral pain threshold is decreased, indicating a visceral hypersensitivity. Consequently, the following study was designed to evaluate the effect of injection of TNBS into the colon on visceral pain threshold in an experimental model of colonic distension.
as §1, §2
In a second series, a group of eight rats treated with TNBS were subjected to a colonic distension session.
In a third series, a group of eight rats treated with TNBS received a subcutaneous (sc) injection of gabapentin or CI-1008 30 minutes prior to initiation of the colonic distension cycle.
as §3, §4
Pain threshold (pressure of distension inducing the first abdominal contraction) after distal colonic distension was determined at Day 7 in two groups of awake rats: control animals and TNBS-treated animals. […] Inflammatory parameters (colon weight, area of hyperemia and necrosis and colonic myeloperoxidase content) were measured in the proximal colon at Day 7 after TNBS treatment.
Gabapentin (100, 300, and 500 mg/kg sc) and CI-1008 (30, 60, 100, and 200 mg/kg sc) were administered 30 minutes before colonic distension and measurement of the inflammatory parameters.

NCC1(CC(=O)O)CCCCC1 [Gabapentin, 1-(aminomethyl)-cyclohexane acetic acid]
gastric lesion (square area of visible lesions) ([1]; gabapentin 10 mg twice, 3 hours apart, followed by indomethacin 25 mg/kg): 4.2 ± 0.39 mm^2 | gastric lesion (square area of visible lesions) ([1]; gabapentin 40 mg intragastrically 30 min before indomethacin 25 mg/kg, assessed 3 hours after indomethacin, mean ± SEM): 22.3 ± 2.8 mm^2 | gastric lesion (square area of visible lesions) ([1]; gabapentin 60 mg/kg (so in the source) intragastrically 30 min before indomethacin 25 mg/kg): 16.5 ± 2.2 mm^2 | gastric bleeding ([1]; gabapentin pretreatment before indomethacin 25 mg/kg): dramatically reduced | Colonic Threshold ([2]; 500 mg/kg sc): 43.75 mm Hg | Colonic Threshold ([3]; 100 mg/kg sc): 22.03 mm Hg | Colonic Threshold ([3]; 300 mg/kg sc): 24.69 mm Hg | effect of TNBS on colonic pain (in words) ([3]; 500 mg/kg sc): completely blocked | Colonic Threshold ([3]; 500 mg/kg sc): 36.88 mm Hg | dose relation of the inhibition of TNBS-induced colonic allodynia [3]: inhibited in a dose-related manner | colonic inflammatory effect of TNBS (colon weight, area of hyperemia and necrosis, colonic myeloperoxidase content) [3]: neither gabapentin nor CI-1008 inhibited

CC(C)C[C@H](CN)CC(=O)O [CI-1008, (S)-3-(aminomethyl)-5-methylhexanoic acid]
Colonic Threshold ([2]; 200 mg/kg sc): 46.41 mm Hg | Colonic Threshold ([3]; 30 mg/kg sc 30 min before colonic distension, Day 7): 2172 mm Hg | Colonic Threshold ([3]; 60 mg/kg sc): 2547 mm Hg | allodynia induced by TNBS (in words) ([3]; 100 mg/kg sc): completely suppressed | Colonic Threshold ([3]; 100 mg/kg sc): 33.13 mm Hg | Colonic Threshold ([3]; 200 mg/kg sc): 40.47 mm Hg | dose relation of the inhibition of TNBS-induced colonic allodynia [3]: dose-related inhibition | colonic inflammatory effect of TNBS (colon weight, area of hyperemia and necrosis, colonic myeloperoxidase content) [3]: neither gabapentin nor CI-1008 inhibited
